The test system of one series is CAOV-3. In words: Growth inhibition assay (SRB). It is filed as cell-based. As to conditions: Homo sapiens, Caov-3, 72 h, 3 days of treatment, read-out: Percentage of growth inhibition, CAOV−3. The text has this: (§1) To illustrate the general and useful biological activity of the heteroarotinoids described in this invention, selected compounds were screened for ability to inhibit the growth of three ovarian cancerous cell lines, namely Caov, SKOV, and OVCAR cell lines, three cervical cell lines (Cervix HPV-Wt p53, Cervix HPV-Mut p53, and Cervix HPV-Mut p53), and one vulvar (Vulvar HPV-Mut p53) cell line as shown in Tables I-III. The cell lines and the technology have been previously described [See Journal of Medicinal Chemistry, 1999, Vol. 42, pages 3602-3614 in an article entitled “Synthesis, Structure-Activity Relationships, and RAR γ-Ligand Interactions of Nitrogen Heteroarotinoids” by A. Dhar, S. Liu, J. Klucik, K. D. Berlin, M. M. Madler, S. Lu, R. T. Ivey, D. Zacheis, C. W. Brown, E. C. Nelson, P. J. Birckbichler, and D. M. Benbrook], but the general technique was slightly modified. Cultures of the cancerous cells were plated in volumes of 150 μL in 96-well microtiter plates at concentrations of 2000-4000 cells/well, depending upon the cell line used. Retinoids were added the next day at 4× the concentrations in 50 μL of media resulting in 1, 2, 3, 4, 5, 7, and 10 μM final concentrations of each retinoid. Control cultures were treated with the same volume of DMSO. After 3 days of treatment, the cell density in each well was determined by fixing the cells in trichloroacetic acid followed by staining the cytoplasmic proteins with sulforhoamine B (SRB). After rinsing, the SRB was solubilized in Tris-HCl, and the optical density of each culture was determined with a MR600 microtiter plate reader. Each experiment was performed in triplicate, and the three values of each treatment were averaged. The average OD of the treated cultures was divided by that of the control cultures treated with solvent alone. To determine the percent growth inhibition, this ratio was subtracted from 1 and multiplied by 100. Tables I, II, and III contain representative examples of the inhibition of growth by the inventive heteroarotinoids of the cancerous cell lines investigated at two independent concentrations (1 and 10 μM). As standards for comparison purposes, trans-retinoic acid (t-RA), 9-cis-retinoic acid (9-c-RA), 13-cis-retinoic acid (13-c-RA), and […] (4-HPR) were added in parallel experiments along with the heteroarotinoids and with dimethyl sulfoxide (DMSO) as the solvent. For convenience, the data in Tables II and III are duplicated and ranked according to tumor type.

The subject of another series is SK-OV-3. In words: Growth inhibition assay (SRB). It is filed as cell-based. The settings on record: Homo sapiens, SK-OV-3, 72 h, 3 days of treatment, read-out: Percentage of growth inhibition, SKOV−3.
Excerpt: as §1

The next series relates to OVCAR-3. In words: Growth inhibition assay (SRB). The class given is cell-based, human. As to conditions: 3 days of treatment.
Excerpt: as §1

The values that follow come from patent US6586460B1, “Heteroarotinoids containing urea or thiourea linker” (The Board of Regents for Oklahoma State University, priority 2001, dated 2003).

SMILES strings stand for the structures.

In the case of `COc1cc2c(cc1NC(=S)Nc1ccc([N+](=O)[O-])cc1)C(C)(C)OCC2(C)C` [heteroarotinoid 31, [(6-Methoxy-1,1,4,4-tetramethylisochroman-7-yl)amino][(4-nitrophenyl)amino]methane 1-Thione], the melting point lay in the range of 178 to 179 °C. Moreover, the inhibition at 1 µM in the series with CAOV-3 (1 μM, Table II) came out at 6.88%. Also, the inhibition at 10 µM in the series on CAOV-3 (10 μM, Table III) stood at 30.8%. In the series on SK-OV-3 (1 μM, Table II), the inhibition at 1 µM is -1.42%. Besides, the inhibition at 10 µM in the series with SK-OV-3 (10 μM, Table III) worked out at 27.4%. In the series with OVCAR-3 (1 μM, Table II), the “Percentage of growth inhibition, OVCAR−3” value stood at 3.88%. Further, the inhibition at 1 µM with OVCAR-3 (Homo sapiens, OVCAR-3, 72 h, 1 μM, Table II, read-out: Percentage of growth inhibition, OVCAR−3) was 3.83%. The inhibition at 10 µM in the series with OVCAR-3 (Homo sapiens, OVCAR-3, 72 h, 10 μM, Table III, read-out: Percentage of growth inhibition, OVCAR−3) turned out to be 80.6%.

By inhibition is commonly meant the change of the read-out against control, counted positive when it falls. The melting point is the temperature, or range, at which the solid turns liquid.
